Experimental data: publication PMC10674657, “Quinazolin-4-one/3-cyanopyridin-2-one Hybrids as Dual Inhibitors of EGFR and BRAF^V600E: Design, Synthesis, and Antiproliferative Activity” (Pharmaceuticals, 2023)
Like-named read-outs stand apart in the source and are kept apart here. Each block holds one compound with its values, some of them ahead of it.

Legend:
MCF-10A cells = experiment: Cell viability (cytotoxicity) MTT assay in non-tumorigenic MCF-10A cells; assay type: cell-based, human; settings: 50 µM, 4 days
[1] = system: A-549 human lung carcinoma cell line; experiment: Antiproliferative assay, A-549
Experimental: (§1) For a rigorous assessment, the widely accepted MTT assay [63, 64] was employed. Using Doxorubicin, a well-established drug, as the reference standard ensures a benchmark for the synthesized compounds, allowing a contextual understanding of their efficacy.
(§2) The MTT assay [63, 64] was employed for this assessment, with Doxorubicin as the reference drug.
(§3) 24h followed by the addition of synthesized compounds (in 200 μL medium to yield a final concentration of 0.1% (v/v) dimethyl sulfoxide) into individual wells of the plates. Four wells were designated to a single compound. The plates were allowed to incubate at 37°C for 96 h. After wards, the medium was aspirated and 3-[4,5-dimethylthiazol-2-yl]-2,5-diphenyltetrazolium bromide (MTT) (0.4 mg/mL) in medium was added to each well and subsequently incubated for 3 h. The medium was aspirated and 150 μL dimethyl sulfoxide (DMSO) was added to each well.
(§4) The plates were vortexed followed by the measurement of absorbance at 540 nm on a microplate

[2] = system: MCF-7 human breast adenocarcinoma cell line; experiment: Antiproliferative assay, MCF-7
Experimental: as §1, §2, §3, §4

[3] = system: HT-29 human colon cancer cell line; experiment: Antiproliferative assay, HT-29
Experimental: as §1, §2, §3, §4

[4] = system: Panc-1 human pancreatic cancer cell line; experiment: Antiproliferative assay, Panc-1
Experimental: as §1, §2, §3, §4

[5] = system: four cancer cell lines (A-549, MCF-7, Panc-1, HT-29); experiment: Antiproliferative assay, average over four cancer cell lines (GI50); settings: read-out: Average IC50 (GI50)
Experimental: as §1, §2, §3, §4

[6] = Cell viability (cytotoxicity) MTT assay in non-tumorigenic MCF-10A cells; assay type: cell-based, human; settings: human, MCF-10A mammary epithelial cells
BRAF^V600E [7] = biological target: T1, BRAF^V600E (Mus musculus, UniProt P28028, V585E); experiment: BRAF V600E kinase inhibitory assay; assay type: biochemical
T1 construct: Mouse full-length GST-tagged; purchased Invitrogen PV3849
T1 sequence (P28028 whole entry V585E): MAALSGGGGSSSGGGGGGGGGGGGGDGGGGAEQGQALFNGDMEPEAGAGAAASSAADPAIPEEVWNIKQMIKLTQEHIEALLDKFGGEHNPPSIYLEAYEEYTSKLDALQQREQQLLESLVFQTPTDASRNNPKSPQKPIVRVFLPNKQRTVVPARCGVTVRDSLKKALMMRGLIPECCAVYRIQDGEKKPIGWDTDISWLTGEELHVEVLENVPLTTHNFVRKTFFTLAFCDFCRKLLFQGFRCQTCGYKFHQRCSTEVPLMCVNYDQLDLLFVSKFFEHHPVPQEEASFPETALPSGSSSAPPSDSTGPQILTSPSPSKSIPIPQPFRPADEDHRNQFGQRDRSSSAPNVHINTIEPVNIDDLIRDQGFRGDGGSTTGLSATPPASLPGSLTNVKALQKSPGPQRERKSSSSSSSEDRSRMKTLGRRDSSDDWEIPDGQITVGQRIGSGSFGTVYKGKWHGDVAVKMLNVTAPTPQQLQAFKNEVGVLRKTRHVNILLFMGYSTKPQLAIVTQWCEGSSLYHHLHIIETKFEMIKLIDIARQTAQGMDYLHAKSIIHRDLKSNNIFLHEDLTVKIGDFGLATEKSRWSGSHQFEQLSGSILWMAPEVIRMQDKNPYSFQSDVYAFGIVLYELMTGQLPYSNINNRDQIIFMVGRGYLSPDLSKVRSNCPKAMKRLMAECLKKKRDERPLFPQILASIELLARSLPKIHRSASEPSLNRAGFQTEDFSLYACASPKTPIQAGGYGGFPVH
Excerpt: Mouse full-length GST-tagged
developed using a phosphor screen.

EGFR [8] = biological target: T2, EGFR (Homo sapiens, UniProt P00533); experiment: EGFR-TK inhibitory assay
T2 sequence (P00533 669-1210): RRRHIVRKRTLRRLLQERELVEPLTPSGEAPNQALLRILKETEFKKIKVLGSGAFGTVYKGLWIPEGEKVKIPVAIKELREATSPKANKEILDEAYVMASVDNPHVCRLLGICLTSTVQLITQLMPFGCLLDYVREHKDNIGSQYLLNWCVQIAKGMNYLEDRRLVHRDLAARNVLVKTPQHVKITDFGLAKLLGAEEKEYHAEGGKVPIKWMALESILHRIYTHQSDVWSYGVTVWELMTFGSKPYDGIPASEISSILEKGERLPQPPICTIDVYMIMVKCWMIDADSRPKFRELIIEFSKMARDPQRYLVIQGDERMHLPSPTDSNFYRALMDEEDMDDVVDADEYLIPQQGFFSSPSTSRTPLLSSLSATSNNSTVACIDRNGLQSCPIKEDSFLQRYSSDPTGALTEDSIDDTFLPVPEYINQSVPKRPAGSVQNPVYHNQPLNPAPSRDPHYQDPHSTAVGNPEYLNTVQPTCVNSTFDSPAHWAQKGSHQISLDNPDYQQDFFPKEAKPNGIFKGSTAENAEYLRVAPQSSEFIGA
Experimental: Baculoviral expression vectors including pBlueBacHis2B and pFASTBacHTc were used
5ʹ upstream to the EGFR sequence comprised a sequence that encoded (His)6.
Sf-9cells were infected for 72h for protein expression. The pellets of Sf-9 cells were solubilized in
a buffer containing sodium vanadate (100 μM), aprotinin (10 μg/mL), triton (1%), HEPES buffer(50mM), ammonium molybdate (10 μM), benzamidine HCl (16 μg/mL), NaCl (10mM), leupeptin (10 μg/mL) and pepstatin (10 μg/mL) at 0°C for 20 min at pH 7.4, followed by centrifugation for 20 min. To eliminate the nonspecifically bound material, a Ni-NTA super flow packed column was used to pass through and wash the crude extract supernatant first with
10mMand then with 100 mM imidazole. Histidine-linked proteins were first eluted with 250 and
then with 500 mM imidazole subsequent to dialysis against NaCl (50 mM), HEPES (20 mM),
glycerol (10%) and 1 μg/mL each of aprotinin, leupeptin and pepstatin for 120 min. The
purification was performed either at 4 °C or on ice. To record autophosphorylation level, EGFR
kinase assay was carried out based on DELFIA/Time-Resolved Fluorometry. The compounds
were first dissolved in DMSO absolute, subsequent to dilution t o appropriate concentration using
HEPES(25 mM) at pH 7.4. Each compound (10 μL) was incubated with recombinant enzyme (10
μL, 5ng for EGFR, 1:80 dilution in 100 mM HEPES) for 10 min at 25 °C, subsequent to the addition of5X buffer (10 μL, containing 2 mM MnCl2, 100 μM Na3VO4, 20 mM HEPES and 1
mM DTT)and ATP-MgCl2 (20 μL, containing 0.1 mM ATP and 50 mM MgCl2) and incubation
for 1h. The negative and positive controls were included in each plate by the incubation of enzyme
either with or without ATP-MgCl2. The liquid was removed after incubation and the plates were
washed thrice using a wash buffer. Europium-tagged anti phosphotyrosine antibody (75 μL, 400
ng) was added to each well followed by incubation of 1h and then washing of the plates using buffer. The enhancement solution was added to each well and the signal was recorded at excitation
The autophosphorylation percentage inhibition by compounds was calculated using the following equation: Using the curves of percentage inhibition

BRAF^V600E [9] = settings: cited from earlier work
[10] = system: cancer cell proliferation; settings: cited from earlier work
EGFR [11] = biological target: T2, EGFR; set-up: acids645–1186; His6 (N); made in house; host or cells: Sf-9 insect cells (baculovirus; pBlueBacHis2B / pFASTBacHTc); settings: cited from earlier work

IC50 ([1]; read-out: Antiproliferative Activity IC50 ± SEM, A-549, mean ± SEM): 2 ± 0.1 µM
IC50 ([2]; read-out: Antiproliferative Activity IC50 ± SEM, MCF-7, mean ± SEM): 1.8 ± 0.1 µM
IC50 ([3]; read-out: Antiproliferative Activity IC50 ± SEM, HT-29, mean ± SEM): 2.1 ± 0.1 µM
IC50 ([4]; read-out: Antiproliferative Activity IC50 ± SEM, Panc-1, mean ± SEM): 2.1 ± 0.1 µM
IC50 ([5]; average of IC50 against four cancer cell lines): 2 µM
Compound: 2-((3-Allyl-4-oxo-3,4-dihydroquinazolin-2-yl)thio)-N-(4-(4-(4-bromophenyl)-4-cyano-6-oxo-1,6-dihydropyridin-2-yl)phenyl)acetamide [Compound 20]
Cell Viability % (MCF-10A cells): 91%

Compound: C=CCn1c(SCC(=O)Nc2ccc(-c3cc(-c4ccc(Cl)cc4)c(C#N)c(=O)[nH]3)cc2)nc2ccccc2c1=O [Compound 19, 2-((3-Allyl-4-oxo-3,4-dihydroquinazolin-2-yl)thio)-N-(4-(4-(4-chlorophenyl)-5-cyano-6-oxo-1,6-dihydropyridin-2-yl)phenyl)acetamide]
viability at 4 days, 50 µM [6]: 91%
IC50 (BRAF^V600E [7]; BRAF V600E, mean ± SEM, read-out: BRAF Inhibition IC50 ± SEM): 0.19 ± 0.012 µM
fold less potent than Erlotinib, BRAF^V600E (BRAF^V600E [7]; ratio of IC50 to Erlotinib): 3 fold
IC50 (EGFR [8]): 0.14 ± 0.011 µM
fold less potent than Erlotinib, EGFR (EGFR [8]; ratio of IC50 to Erlotinib): 1.8 fold
IC50 ([1]; Homo sapiens, A549, read-out: Antiproliferative Activity IC50 ± SEM, A-549): 1.3 ± 0.1 µM
IC50 ([2]; Homo sapiens, MCF7, read-out: Antiproliferative Activity IC50 ± SEM, MCF-7): 1.2 ± 0.08 µM
IC50 ([3]; Homo sapiens, HT-29, read-out: Antiproliferative Activity IC50 ± SEM, HT-29): 1.6 ± 0.1 µM
IC50 ([4]; Homo sapiens, PANC-1, read-out: Antiproliferative Activity IC50 ± SEM, Panc-1): 1.6 ± 0.1 µM
IC50 ([5]; Homo sapiens): 1.4 µM

Compound: COc1ccc(-c2cc(-c3ccc(OC)c(OC)c3)n(CC(=O)Nc3ccc(C4=NNC(c5ccc(OC)c(OC)c5)C4)cc3)c(=O)c2C#N)cc1OC (centres unmarked) [III]
IC50 (BRAF^V600E [9]): 0.065 µM
GI50 [10]: 0.025 µM

Compound: C=CCn1c(SCC(=O)Nc2cccc(C(=O)/C=C/c3ccc(OC)cc3)c2)nc2ccccc2c1=O [II]
IC50 (BRAF^V600E [9]): 0.65 µM
IC50 (EGFR [11]): 0.11 µM

Compound: COc1ccc(/C=C/C(=O)c2ccc(NC(=O)Cn3c(-c4ccc(OC)c(OC)c4)cc(-c4ccc(OC)c(OC)c4)c(C#N)c3=O)cc2)cc1 [IV]
IC50 (BRAF^V600E [9]): 0.058 µM
GI50 [10]: 0.72 µM
